Measurements from PubChem BioAssay AID2060900 (Molecular Pharmacology Branch, DTP, NCI, 2025).

System: 521955-158-R2-J5-PDC complex spheroids, viability
Experiment: Anticancer human tumor 521955-158-R2-J5-PDC patient-derived pancreatic carcinoma cell line growth inhibition [RAS]
Settings: for IC50: curve of first compound; for viability, T/C: stronger effect = lower value; active = viability on the fitted dose curve at most 10% of control; inactive = the rest
From the text: RAS pathway inhibitors in Combinations in Complex Spheroids
A high-throughput screen of multi-cell type tumor spheroids was designed to identify active combinations of RAS pathway inhibitors and targeted small molecules. Complex spheroids include a stromal component modeled by human endothelial cells (HUVEC) and fibroblasts modeled by human mesenchymal stem cells (MSCs). The concentration ranges selected for each drug and investigational agent were based upon clinically achievable concentrations if the clinical Cmax of the agent was known.
Compounds. The drugs and investigational agents: abemaciclib (NSC768073), cobimetinib (NSC768068), divarasib (GDC6063, NSC841802), docetaxel (NSC628503), GDC-1971 (RLY-1971, NSC841576), gemcitabine (NSC613327), inavolisib (NSC800729), ipatasertib (NSC767898), KB-0742 (NSC834161), MRTX-1133 (NSC836407), osimertinib (NSC779217), RMC-4630 (NSC839698), RMC-6236 (NSC851965), RMC-6291 (NSC852671), Ro-3306 (NSC812927), sapanisertib (NSC764658), SN-38 (NSC673596), staurosporine (NSC755774), SY5609 (NSC837396), and tovorafenib (DAY101, NSC766906), were obtained from the National Cancer Institute (NCI) Developmental Therapeutics Program Chemical Repository. The FDA-approved anticancer drug set is available from the NCI Developmental Therapeutics Program. […] The stock solutions were prepared in dimethyl sulfoxide (DMSO, Sigma-Aldrich, St. Louis, MO, cat. D2650) at 800-fold the tested concentration and stored at -70 degrees C prior to their use. All drugs and investigational agents were tested over a range starting from a high concentration at or near the clinical Cmax and decreasing in half-log increments. If the clinical Cmax for an agent had not been determined, the highest concentration tested was 10 microM.
Cell Culture. All cells were maintained in an incubator at 37 degrees C and 5% CO2 with 95% humidity. The PDC lines were cultured according to standard operating procedures established by the NCI PDMR. All PDCs were thawed and cultured in Matrigel-coated flasks prepared with a working solution of 1X Ham's F-12 nutrient mix, without supplementation (Invitrogen, Waltham, MA, cat. 11765054), 100 U/mL penicillin-streptomycin (Invitrogen, cat. 15140122), and 2.5% Matrigel (Corning Inc., Corning, NY, cat. 354248) for the first three passages. The 362531-283-R-J2-PDC and 782815-120-R-J1-PDC lines were cultured in 6C/Colon 1B media, which includes advanced DMEM/F-12 (Thermo Fisher Scientific, cat. 12634028), 10 mM HEPES (Thermo Fisher Scientific, cat. 15630080), 1X GlutaMAX supplement (Thermo Fisher Scientific, cat. 35050061), 0.1 mg/mL primocin (InvivoGen, San Diego, CA, cat. ant-pm-2), 10% defined fetal bovine serum, heat inactivated (HyClone Laboratories Inc., Logan, UT, cat. SH30070.03HI), 50% L-WRN conditioned media (ATCC, cat. CRL-3276), 1.25 mM N-Acetyl-L-cysteine (Sigma-Aldrich, cat. A9165), 10 mM nicotinamide (Sigma-Aldrich, cat. N0636), 1X B-27 supplement (Thermo Fisher Scientific, cat. 17504044), 1X N-2 supplement (Thermo Fisher Scientific, cat. 17502048), 50 ng/mL human EGF (Thermo Fisher Scientific, cat. PHG0311), and 10 microM Y-27632 dihydrochloride (Tocris Bioscience, cat. 1254). The K12877-001-R-J1-PDC line was cultured in 6I media, which includes all 6C/Colon 1B media plus 10 ng/mL human FGF-10 (PeproTech, cat. 100-26), 1 ng/mL human FGF-2 (PeproTech, cat. 100-18B), 1 µM prostaglandin E2 (Tocris Bioscience, cat. 2296), […] hydrocortisone (Sigma-Aldrich, cat. H4001), and […] bovine insulin (Sigma-Aldrich, cat. I6634). The K86415-001-R-J1-PDC line was cultured in 6D media, which includes all 6C/Colon 1B media components minus the L-WRN conditioned media. The 485176-168-R4-J1-PDC was cultured in PANC media, which includes all 6C/Colon 1B media plus 100 ng/mL human FGF-10 (PeproTech, cat. 100-26), 500 nM SB-431542 (Selleckchem, cat. S1067), and 10 nM gastrin (Tocris Bioscience, cat. 3006). […]

[1] = second compound 0.0316 µM, first compound 0.0316 µM
[2] = second compound 0.0316 µM, first compound 0.1 µM
[3] = second compound 0.1 µM, first compound 0.0316 µM
[4] = second compound 0.1 µM, first compound 0.1 µM
[5] = second compound 0.316 µM, first compound 0.0316 µM
[6] = second compound 0.316 µM, first compound 0.1 µM
[7] = second compound 1 µM, first compound 0.0316 µM
[8] = second compound 1 µM, first compound 0.1 µM
[9] = second compound 3.16 µM, first compound 0.0316 µM
[10] = second compound 3.16 µM, first compound 0.1 µM
[11] = second compound 10 µM, first compound 0.0316 µM
[12] = second compound 10 µM, first compound 0.1 µM
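Also: compound exposure lasted seven days before the viability read.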
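For viability, T/C in this document: spheroids also contain HUVEC endothelial cells and mesenchymal stem cells as stroma.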

CC(C)n1nc(-c2ccc3oc(N)nc3c2)c2c(N)ncnc21 + C#Cc1c(F)ccc2cc(O)cc(-c3ncc4c(N5CC6CCC(C5)N6)nc(OCC56CCCN5CC(F)C6)nc4c3F)c12
inactive: viability, T/C (second compound 0.0316 µM, first compound 0.000316 µM) 83.6% | viability, T/C (second compound 0.0316 µM, first compound 0.001 µM) 58.1% | viability, T/C (second compound 0.0316 µM, first compound 0.00316 µM) 46.7% | viability, T/C (second compound 0.0316 µM, first compound 0.01 µM) 27.2% | viability, T/C [1] 20.3% | viability, T/C [2] 16.5% | viability, T/C (second compound 0.1 µM, first compound 0.000316 µM) 51.2% | viability, T/C (second compound 0.1 µM, first compound 0.001 µM) 51.9% | viability, T/C (second compound 0.1 µM, first compound 0.00316 µM) 40.8% | viability, T/C (second compound 0.1 µM, first compound 0.01 µM) 22.4% | viability, T/C [3] 12.6% | viability, T/C [4] 12.4% | viability, T/C (second compound 0.316 µM, first compound 0.000316 µM) 42.1% | viability, T/C (second compound 0.316 µM, first compound 0.001 µM) 56.1% | viability, T/C (second compound 0.316 µM, first compound 0.00316 µM) 40.2% | viability, T/C (second compound 0.316 µM, first compound 0.01 µM) 24.4% | viability, T/C [5] 13.6% | viability, T/C (second compound 1 µM, first compound 0.000316 µM) 49.6% | viability, T/C (second compound 1 µM, first compound 0.001 µM) 45.1% | viability, T/C (second compound 1 µM, first compound 0.00316 µM) 40.4% | viability, T/C (second compound 1 µM, first compound 0.01 µM) 22.1% | viability, T/C [7] 13.7% | viability, T/C (second compound 3.16 µM, first compound 0.000316 µM) 42.6% | viability, T/C (second compound 3.16 µM, first compound 0.001 µM) 44.6% | viability, T/C (second compound 3.16 µM, first compound 0.00316 µM) 33.2% | viability, T/C (second compound 3.16 µM, first compound 0.01 µM) 21.3% | viability, T/C [9] 11% | viability, T/C (second compound 10 µM, first compound 0.000316 µM) 38.9% | viability, T/C (second compound 10 µM, first compound 0.001 µM) 33.8% | viability, T/C (second compound 10 µM, first compound 0.00316 µM) 21.3% | viability, T/C (second compound 10 µM, first compound 0.01 µM) 17% | viability, T/C [11] 10.4%
active: viability, T/C [6] 8.05% | viability, T/C [8] 8.36% | viability, T/C [10] 7.2% | viability, T/C [12] 7.51%
1.97 nM: IC50 (second compound 0.0316 µM)
1.08 nM: IC50 (second compound 0.1 µM)
< 0.316 nM: IC50 (second compound 0.316 µM) | IC50 (second compound 1 µM) | IC50 (second compound 3.16 µM) | IC50 (second compound 10 µM)

C[C@@H](NC(=O)c1ncnc(N)c1Cl)c1ncc(C(=O)Nc2cc(C(F)(F)F)c(Cl)cn2)s1 + C#Cc1c(F)ccc2cc(O)cc(-c3ncc4c(N5CC6CCC(C5)N6)nc(OCC56CCCN5CC(F)C6)nc4c3F)c12
inactive: viability, T/C [1] 57.8% | viability, T/C [2] 58.3% | viability, T/C (second compound 0.0316 µM, first compound 0.316 µM) 59.8% | viability, T/C (second compound 0.0316 µM, first compound 1 µM) 54.3% | viability, T/C (second compound 0.0316 µM, first compound 3.16 µM) 57.4% | viability, T/C (second compound 0.0316 µM, first compound 10 µM) 46% | viability, T/C [3] 65.5% | viability, T/C [4] 58.3% | viability, T/C (second compound 0.1 µM, first compound 0.316 µM) 46.9% | viability, T/C (second compound 0.1 µM, first compound 1 µM) 47.3% | viability, T/C (second compound 0.1 µM, first compound 3.16 µM) 57.2% | viability, T/C (second compound 0.1 µM, first compound 10 µM) 42.3% | viability, T/C [5] 62% | viability, T/C [6] 55.7% | viability, T/C (second compound 0.316 µM, first compound 0.316 µM) 58.4% | viability, T/C (second compound 0.316 µM, first compound 1 µM) 53.2% | viability, T/C (second compound 0.316 µM, first compound 3.16 µM) 52.4% | viability, T/C (second compound 0.316 µM, first compound 10 µM) 37.9% | viability, T/C [7] 61.2% | viability, T/C [8] 48.4% | viability, T/C (second compound 1 µM, first compound 0.316 µM) 47.5% | viability, T/C (second compound 1 µM, first compound 1 µM) 51% | viability, T/C (second compound 1 µM, first compound 3.16 µM) 45.3% | viability, T/C (second compound 1 µM, first compound 10 µM) 33.5% | viability, T/C [9] 51.3% | viability, T/C [10] 49.1% | viability, T/C (second compound 3.16 µM, first compound 0.316 µM) 36.6% | viability, T/C (second compound 3.16 µM, first compound 1 µM) 54.4% | viability, T/C (second compound 3.16 µM, first compound 3.16 µM) 43.5% | viability, T/C (second compound 3.16 µM, first compound 10 µM) 32.7% | viability, T/C [11] 41.1% | viability, T/C [12] 38.2% | viability, T/C (second compound 10 µM, first compound 0.316 µM) 37.3% | viability, T/C (second compound 10 µM, first compound 1 µM) 37.5% | viability, T/C (second compound 10 µM, first compound 3.16 µM) 35.1% | viability, T/C (second compound 10 µM, first compound 10 µM) 22.8%
493 nM: IC50 (second compound 1 µM)
> 10000 nM: IC50 (second compound 0.0316 µM)
< 31.6 nM: IC50 (second compound 3.16 µM) | IC50 (second compound 10 µM)
531 nM: IC50 (second compound 0.1 µM)
3290 nM: IC50 (second compound 0.316 µM)
